Drawing on DBAASP, this text covers MIC for five molecules.

Each structure is given as a SMILES string. Converted amounts (≈) assume the structure as drawn.

What all share (test): ≥ marks a high value that may be exact or a test limit, other limits are often not marked, values filed in µg/mL are converted to µM
Assay [1] relates to Bacillus subtilis ATCC 6633.
Assay [2] relates to Staphylococcus aureus ATCC 29213.
Assay [3] has as its system Candida parapsilosis ATCC 22019.
Assay [4] concerns Staphylococcus aureus ATCC 33592.
Assay [5] concerns Escherichia coli ATCC 9637.
Assay [6] deals with Candida albicans ATCC 10231.
The subject of assay [7] is Staphylococcus aureus ATCC 700699.
For assay [8], the system named is Staphylococcus aureus ATCC BAA-44.
For assay [9], the system named is Staphylococcus aureus ATCC 700698.
Assay [10] deals with Pseudomonas aeruginosa ATCC BAA-427.
The subject of assay [11] is Staphylococcus aureus ATCC 25923.
Assay [12] has as its system Sporothrix schenckii.
Assay [13] has as its system Klebsiella pneumoniae ATCC 27736.
The test system of assay [14] is Cryptococcus neoformans.
Assay [15] has as its system Streptococcus gordonii DL1.
In assay [16] the test system is Actinomyces naeslundii ATCC 12104.
Assay [17] relates to Streptococcus mutans UA159.
Assay [18] has as its system Streptococcus sanguinis ATCC 10556.
For assay [19], the system named is Lacticaseibacillus casei ATCC 393.
The subject of assay [20] is Actinomyces viscosus ATCC 15987.
Assay [21] concerns Lactobacillus acidophilus ATCC 14931.
The subject of assay [22] is Limosilactobacillus fermentum ATCC 9338.
Assay [23] relates to Streptococcus oralis ATCC 9811.
The subject of assay [24] is Streptococcus gordonii ATCC 10558.
Assay [25] concerns Pseudomonas aeruginosa ATCC 10145.
Assay [26] has as its system Pseudomonas aeruginosa ATCC BAA-1744.
In assay [27] the test system is Pseudomonas aeruginosa ATCC 27853.
Assay [28] relates to Acinetobacter baumannii NR-17784.
Assay [29] concerns Pseudomonas aeruginosa 1125.
Assay [30] has as its system Acinetobacter baumannii ATCC BAA-747.
The subject of assay [31] is Pseudomonas aeruginosa 1109.
Assay [32] relates to Acinetobacter baumannii NR-9667.
Assay [33] concerns Pseudomonas aeruginosa ATCC 35032.
The test system of assay [34] is Acinetobacter baumannii ATCC 19606.
In assay [35] the test system is Pseudomonas aeruginosa 1017.
Assay [36] relates to Pseudomonas aeruginosa ATCC 9721.
The test system of assay [37] is Pseudomonas aeruginosa ATCC 15442.
Assay [38] concerns Acinetobacter baumannii NR-13382.
Assay [39] deals with Pseudomonas aeruginosa ATCC 25619.
Assay [40] relates to Pseudomonas aeruginosa ATCC 9027.
Assay [41] has as its system Pseudomonas aeruginosa 1131.
Assay [42] deals with Acinetobacter baumannii NR-13375.
Assay [43] deals with Acinetobacter baumannii ATCC BAA-1605.
Assay [44] deals with Staphylococcus aureus USA 300 LAC.
Assay [45] has as its system Klebsiella pneumoniae ATCC 13883.
For assay [46], the system named is Staphylococcus aureus USA 300.
Assay [47] has as its system Pseudomonas aeruginosa PAO1.
Assay [48] relates to Escherichia coli ATCC 25922.

Consider `CC[C@H](C)[C@H](NC(=O)[C@H](C)NC(=O)CNC(=O)[C@H](CCCCN)NC(=O)[C@@H](NC(=O)[C@H](CC(C)C)NC(=O)[C@H](Cc1c[nH]c2ccccc12)NC(=O)CNC(=O)[C@H](Cc1ccccc1)NC(=O)[C@@H](N)Cc1ccccc1)[C@@H](C)CC)C(=O)N[C@@H](Cc1cnc[nH]1)C(=O)N[C@@H](C)C(=O)NCC(=O)N[C@@H](CCCCN)C(=O)N[C@@H](C)C(=O)N[C@H](C(=O)N[C@@H](Cc1cnc[nH]1)C(=O)N1CCC[C@H]1C(=O)N[C@@H](CC(C)C)C(=O)N[C@H](C(=O)N[C@@H](Cc1cnc[nH]1)C(=O)N[C@@H](CCCN=C(N)N)C(=O)N[C@@H](CCCN=C(N)N)C(=O)N[C@@H](CCCN=C(N)N)C(=O)N[C@@H](Cc1cnc[nH]1)C(=O)O)[C@@H](C)CC)[C@@H](C)CC` [FFGWLIKGAIHAGKAIHPLIHRRRH], for which the MIC in [1] is 3 µM (≈ 8.8 µg/mL); in assay [2], 6.8 µM (≈ 19.9 µg/mL); in [3], 13.6 µM (≈ 39.9 µg/mL); in assay [4], 1.6 µM (≈ 4.69 µg/mL); in assay [5] it was 3 µM (≈ 8.8 µg/mL); in assay [6], 13.6 µM (≈ 39.9 µg/mL). Also, the MIC in [7] is 3 µM (≈ 8.8 µg/mL); in assay [8], 3 µM (≈ 8.8 µg/mL); in assay [9], 3 µM (≈ 8.8 µg/mL); in [10], 6.8 µM (≈ 19.9 µg/mL); in assay [11], 3 µM (≈ 8.8 µg/mL); in assay [12], 27.2 µM (≈ 79.8 µg/mL). In addition, the MIC in assay [13] and in assay [14] was 13.6 µM (≈ 39.9 µg/mL) each time.

With `CC(C)C[C@H](NC(=O)CN)C(=O)N[C@@H](CC(C)C)C(=O)N[C@@H](Cc1c[nH]c2ccccc12)C(=O)N[C@@H](Cc1cnc[nH]1)C(=O)N[C@@H](CC(C)C)C(=O)N[C@@H](CC(C)C)C(=O)N[C@@H](Cc1cnc[nH]1)C(N)=O` [GLLWHLLH], the MIC is at least 518 µM in assay [15]; at least 130 µM in assay [16]; at least 259 µM in assay [17]; at least 518 µM in assay [18]; at least 64.8 µM in [19]; at least 32.4 µM in assay [20]. In addition, the MIC in [21] and in [22] was at least 130 µM in each case.

Turning to `CC[C@H](C)[C@H](NC(=O)[C@H](CCC(N)=O)NC(=O)[C@H](CCC(=O)O)NC(=O)[C@H](CCCCN)NC(=O)[C@@H]1CCCN1C(=O)[C@H](CC(C)C)NC(=O)[C@H](CS)NC(=O)[C@H](CO)NC(=O)[C@H](CC(C)C)NC(=O)[C@@H](NC(=O)[C@H](C)NC(=O)[C@H](CS)NC(=O)[C@H](CCCN=C(N)N)NC(=O)CNC(=O)CNC(=O)CNC(=O)CNC(=O)[C@H](Cc1c[nH]c2ccccc12)NC(=O)[C@@H](NC(=O)[C@H](Cc1cnc[nH]1)NC(=O)[C@H](CCSC)NC(=O)CNC(=O)[C@@H]1CCCN1C(=O)[C@H](C)NC(=O)[C@H](CC(=O)O)NC(=O)[C@@H]1CCCN1C(=O)[C@H](CC(C)C)NC(=O)[C@H](CCCCN)NC(=O)[C@@H](N)CCCN=C(N)N)[C@@H](C)O)C(C)C)C(=O)O` [RKLPDAPGMHTWGGGGRCAVLSCLPKEQI], the MIC in assay [18] is at least 227 µM; in assay [23] it was at least 208 µM; in assay [24], at least 294 µM.

In the case of `CC[C@H](C)[C@H](NC(=O)[C@H](CCCN=C(N)N)NC(=O)[C@H](CCCN=C(N)N)NC(=O)[C@H](CC(C)C)NC(=O)[C@@H](N)Cc1c[nH]c2ccccc12)C(=O)N[C@@H](CCCCN)C(=O)N[C@@H](C)C(=O)N[C@@H](Cc1c[nH]c2ccccc12)C(=O)N[C@@H](CC(C)C)C(=O)N[C@@H](CCCN=C(N)N)C(=O)N[C@@H](CCCN=C(N)N)C(=O)N[C@@H](CCCCN)C(=O)N[C@@H](CCCN=C(N)N)C(=O)N[C@@H](CCCCN)C(=O)O` [WLRRIKAWLRRKRK], the MIC in assay [25] was 16 µM (≈ 31.5 µg/mL); in assay [26], 16 µM (≈ 31.5 µg/mL); in assay [27] it was 8 µM (≈ 15.7 µg/mL); in assay [28], 4 µM (≈ 7.87 µg/mL); in assay [29], at least 32 µM; in assay [30], 8 µM (≈ 15.7 µg/mL). Besides, the MIC in assay [31] is 8 µM (≈ 15.7 µg/mL); in assay [32] it was at least 32 µM; in assay [33], 16 µM (≈ 31.5 µg/mL); in [34], 16 µM (≈ 31.5 µg/mL); in assay [35], at least 64 µM; in assay [36] it was 16 µM (≈ 31.5 µg/mL). Also, the MIC is 16 µM (≈ 31.5 µg/mL) in assay [37]; 16 µM (≈ 31.5 µg/mL) in assay [38]; 4 µM (≈ 7.87 µg/mL) in [39]; 4 µM (≈ 7.87 µg/mL) in assay [40]; 16 µM (≈ 31.5 µg/mL) in assay [41]; 8 µM (≈ 15.7 µg/mL) in assay [42]. Moreover, the MIC in assay [43] is 16 µM (≈ 31.5 µg/mL).

Consider `CC[C@H](C)[C@H](NC(=O)[C@H](CCCN=C(N)N)NC(=O)[C@H](CCCN=C(N)N)NC(=O)[C@H](CC(C)C)NC(=O)[C@H](CCCN=C(N)N)NC(=O)[C@H](Cc1c[nH]c2ccccc12)NC(=O)[C@@H](N)Cc1c[nH]c2ccccc12)C(=O)N[C@@H](Cc1c[nH]c2ccccc12)C(N)=O` [WWRLRRIW], for which the MIC in assay [44] is 12.5 µM (≈ 15.9 µg/mL); in assay [45] it was 25 µM (≈ 31.8 µg/mL); in assay [46] it was 12.5 µM (≈ 15.9 µg/mL); in assay [47], 12.5 µM (≈ 15.9 µg/mL); in [48], 25 µM (≈ 31.8 µg/mL).
